Here are results for 4 molecules from patent publication US12186283B2, “Bismuth-thiol compositions and methods of use” (Microbion Corporation, priority 2018, dated 2025).

≈ marks a conversion by molar mass, not a printed value.

By MIC is commonly meant the lowest concentration that inhibits growth of the organism. Low values mean a more susceptible organism, high ones a less susceptible organism.

For experiment [1], the system named is S. aureus ATCC 29213. The settings on record: S. aureus ATCC 29213, QC organism; cited from earlier work.
The test system of experiment [2] is S. aureus ATCC 29213. As to the kind of experiment: Broth microdilution MIC, ATCC QC organism (Example 12). The class given is cell-based, Staphylococcus aureus. The settings on record: S. aureus ATCC 29213, QC organism. The method, then:
The in vitro activity of BisEDT and two additional bismuth-thiol investigational agents (MB-2B and MB-6) was determined for isolates of Escherichia coli, Klebsiella pneumoniae, Pseudomonas aeruginosa and Acinetobacter baumannii characterized for extended-spectrum β-lactamases (ESBL) and/or carbapenem resistance. In addition, vancomycin-intermediate Staphylococcus aureus (VISA) were evaluated. The majority of the isolates tested in the current study were multidrug-resistant (MDR) as defined by resistance to at least three different antibiotic classes. Susceptibility to the investigational compounds and relevant comparators was determined by broth microdilution conducted in accordance with guidelines from the Clinical and Laboratory Standards Institute (CLSI; 2,3).

In experiment [3] the test system is vancomycin-intermediate Staphylococcus aureus (VISA). As to the kind of experiment: Broth microdilution MIC (Example 12). A general note: Dilution methods test growth across graded concentrations, often in twofold steps.
[4] abbreviates: Staphylococcus aureus NRS 1 (hVISA).
[5] abbreviates: Staphylococcus aureus NRS 24 (hVISA).

As to `CCC[C@@H]1C[C@@H](C(=O)N[C@@H]([C@H]2O[C@H](SC)[C@H](O)[C@@H](O)[C@H]2O)[C@H](C)Cl)N(C)C1` [CLI], the “MIC, QC range” value in experiment [1] is reported as “(0.06-0.25) μg/mL”. The MIC in experiment [2] was 0.25 µg/mL (≈ 0.588 µM); in experiment [3] (setting [4]), greater than 8 µg/mL; in experiment [3] (Staphylococcus aureus NRS 2) it was greater than 8 µg/mL; in experiment [3] (Staphylococcus aureus NRS 3) it was greater than 8 µg/mL; in experiment [3] (Staphylococcus aureus NRS 4), greater than 8 µg/mL; in experiment [3] (Staphylococcus aureus NRS 13), 0.06 µg/mL (≈ 0.141 µM). Also, the MIC in experiment [3] (Staphylococcus aureus NRS 18), in experiment [3] (Staphylococcus aureus NRS 22), in experiment [3] (setting [5]) and in experiment [3] (Staphylococcus aureus NRS 27) was greater than 8 µg/mL each time.
On to `CCCCCCCCCC(=O)NC(Cc1c[nH]c2ccccc12)C(=O)NC(CC(N)=O)C(=O)NC(CC(=O)O)C(=O)NC1C(=O)NCC(=O)NC(CCCN)C(=O)NC(CC(=O)O)C(=O)NC(C)C(=O)NC(CC(=O)O)C(=O)NCC(=O)NC(CO)C(=O)NC(C(C)CC(=O)O)C(=O)NC(CC(=O)c2ccccc2N)C(=O)OC1C` (centres unmarked) [DAP], for which, in experiment [1], the “MIC, QC range” value is “(0.12-1) μg/mL”. In addition, the MIC was 0.5 µg/mL (≈ 0.309 µM) in experiment [2]; 1 µg/mL (≈ 0.617 µM) in experiment [3] (setting [4]); 0.25 µg/mL (≈ 0.154 µM) in experiment [3] (Staphylococcus aureus NRS 2); 1 µg/mL (≈ 0.617 µM) in experiment [3] (Staphylococcus aureus NRS 3); 0.5 µg/mL (≈ 0.309 µM) in experiment [3] (Staphylococcus aureus NRS 4); 2 µg/mL (≈ 1.23 µM) in experiment [3] (Staphylococcus aureus NRS 13). Moreover, the MIC in experiment [3] (Staphylococcus aureus NRS 18) is 0.5 µg/mL (≈ 0.309 µM); in experiment [3] (Staphylococcus aureus NRS 22), 2 µg/mL (≈ 1.23 µM); in experiment [3] (setting [5]), 0.5 µg/mL (≈ 0.309 µM); in experiment [3] (Staphylococcus aureus NRS 27) it was 0.25 µg/mL (≈ 0.154 µM).
As for `CC(=O)NC[C@H]1CN(c2ccc(N3CCOCC3)c(F)c2)C(=O)O1` [LZD], the “MIC, QC range” value in experiment [1] is reported as “(1-4) μg/mL”. For the same molecule, the MIC was found to be 4 µg/mL (≈ 11.9 µM) in experiment [2]; 1 µg/mL (≈ 2.96 µM) in experiment [3] (setting [4]); 4 µg/mL (≈ 11.9 µM) in experiment [3] (Staphylococcus aureus NRS 2); 1 µg/mL (≈ 2.96 µM) in experiment [3] (Staphylococcus aureus NRS 3); 1 µg/mL (≈ 2.96 µM) in experiment [3] (Staphylococcus aureus NRS 4); 2 µg/mL (≈ 5.93 µM) in experiment [3] (Staphylococcus aureus NRS 13). Besides, the MIC in experiment [3] (Staphylococcus aureus NRS 18) turned out to be 1 µg/mL (≈ 2.96 µM); in experiment [3] (Staphylococcus aureus NRS 22) it was 1 µg/mL (≈ 2.96 µM); in experiment [3] (setting [5]), 2 µg/mL (≈ 5.93 µM); in experiment [3] (Staphylococcus aureus NRS 27), 2 µg/mL (≈ 5.93 µM).
Regarding `CN[C@H](CC(C)C)C(=O)N[C@H]1C(=O)N[C@@H](CC(N)=O)C(=O)N[C@H]2C(=O)N[C@H]3C(=O)N[C@H](C(=O)N[C@H](C(=O)O)c4cc(O)cc(O)c4-c4cc3ccc4O)[C@H](O)c3ccc(c(Cl)c3)Oc3cc2cc(c3O[C@@H]2O[C@H](CO)[C@@H](O)[C@H](O)[C@H]2O[C@H]2C[C@](C)(N)[C@H](O)[C@H](C)O2)Oc2ccc(cc2Cl)[C@H]1O` [VAN], the “MIC, QC range” value in experiment [1] was “(0.5-2) μg/mL”. For the same molecule, the MIC in experiment [2] was determined as 0.5 µg/mL (≈ 0.345 µM); in experiment [3] (setting [4]) it was 4 µg/mL (≈ 2.76 µM); in experiment [3] (Staphylococcus aureus NRS 2), 0.5 µg/mL (≈ 0.345 µM); in experiment [3] (Staphylococcus aureus NRS 3) it was 8 µg/mL (≈ 5.52 µM); in experiment [3] (Staphylococcus aureus NRS 4) it was 4 µg/mL (≈ 2.76 µM); in experiment [3] (Staphylococcus aureus NRS 13), 2 µg/mL (≈ 1.38 µM). For the same molecule, the MIC in experiment [3] (Staphylococcus aureus NRS 18) was 4 µg/mL (≈ 2.76 µM); in experiment [3] (Staphylococcus aureus NRS 22), 4 µg/mL (≈ 2.76 µM); in experiment [3] (setting [5]), 2 µg/mL (≈ 1.38 µM); in experiment [3] (Staphylococcus aureus NRS 27) it was 2 µg/mL (≈ 1.38 µM).
